{"source": "patent US5932555A", "about": "(priority 1997, dated 1999)", "key": {"Acute toxicity test": {"experiment": "Acute toxicity test", "details": "mouse, in vivo, iv"}, "ICR mice": {"system": "ICR mice", "experiment": "Acute toxicity test"}, "[1]": {"system": "blastgenesis of lymphocytes", "experiment": "Mouse allogenic mixed lymphocyte reaction (MLR), inhibition of blastgenesis ([3H]-thymidine incorporation)", "assay_type": "cell-based, mouse (C57BL/6 responder, BALB/C stimulator)", "details": "96 h", "method": "The mouse allogenic mixed lymphocyte reaction for assay was carried out according to the method of Hatanaka et al. (Hatanaka et al., J. Antibiotics, 41, 1592-1601 (1988)). That is, spleen cells from C57BL/6 mouse (H-2^b) as responder cells were mixed with spleen cells from BALB/C mouse (H-2^d) treated with mitomycin C as stimulator cells, and then cultured.\nPreparation of the responder cells was carried out in the following manner:\nThe spleen was removed from a 5- to 6-week-old C57BL/6 mouse, then homogenized in 20 ml ice-cold RPMI 1640 medium supplemented with 10% heat inactivated fetal calf serum (FCS), and filtered through a gauze to give a single cell suspension. The cells were recovered by centrifugation, suspended in 4 ml PRMI 1640 medium, followed by adding 6 ml solution (pH 7.2) containing 0.15 M ammonium chloride, 1 mM sodium hydrogen carbonate and 0.1 mM tetrasodium ethylenediaminetetraacetate, and the mixture was incubated at 0° C. for 1 minute to remove the contaminating erythrocytes. […]\n90 μl of the responder cell suspension, 90 μl of the stimulator cell suspension and 20 μl of sample were added to a 96-well microplate and incubated at 37° C. in wet 5% CO2 /95% air for 96 hours. […] The radioactivity of a filter disk corresponding to each well was determined using liquid scintillation counter (beta-counter)."}, "[2]": {"system": "adriamycin-resistant P388", "experiment": "Cytotoxicity test on adriamycin-resistant P388 (P388/ADR) (MTT, 72 h)", "assay_type": "cell-based", "method": "(§1) Cultured tumor cell lines P388 and P388/ADR were suspended in RPMI1640 medium containing 10% heat inactivated fetal calf serum (FCS) and 20 μM 2-mercaptoethanol whereby a cell suspension (5×10^4 cells/ml) was prepared.\nA sample examined was dissolved in methanol, then diluted with RPMI 1640 medium and subjected to serial 2-fold dilution starting at the concentration of 0.1 mg/ml. 180 μl of the cell suspension and 20 μl of the sample solution were added into a 96-well micro-titer plate and incubated at 37° C. in wet 5% CO2 gas/95% air. 72 hours thereafter, cell growth was measured by a calorimetric assay method using 3-(4,5-dimethyl-2-thiazolyl)-2,5-diphenyl-2H-tetrazolium bromide (MTT) as follows: 20 μl of 2 mg/ml MTT solution was added to each well and the cells were incubated for 4 hours at 37° C. Thereafter, 50 μl of 50% dimethylformamide solution containing 20% sodium dodecyl sulfate was added to each well and allowed to stand, so that the formed violet formazan crystal was dissolved, and its absorbance at 570 nm was measured in a microplate absorbance photometer (Immunoreader) and used as an indicator of the growth. The result was expressed in terms of the concentration of a sample at which growth was inhibited by 50% (IC50), which was determined from the relationship between sample concentrations and degrees of inhibition calculated using the following equation (1):\n(§2) Degree of inhibition=[1-(absorbance in presence of sample)/(absorbance in\n(§3) absence of sample)]×100 (1)"}, "P388/ADR": {"system": "P388/ADR", "experiment": "Mouse in vivo antitumor test, P388/ADR transplanted", "details": "for T/C / average body weight after 10 days / average survival days: P388/ADR", "method": "2×10^5 cells of P388 or P388/ADR were inoculated intraperitoneally into each of CDF1 mice (male, each weighing 20 g, 10 animals/group), and from the next day, the test solution was administered at 10, 5, and 1 mg/kg body weight/day respectively by intraperitoneal injection of 200 μl sample at each concentration once a day for 10 successive days. The numbers with time of mice which survived after administration was counted and the average survival days and T/C (survival days of treated mice/survival days of control mice) were calculated. The average body weights after 10 days were also measured."}, "P388": {"system": "P388", "experiment": "Cytotoxicity test on cultured tumor cell line P388 (MTT, 72 h)", "assay_type": "cell-based", "method": "as §1\n72 hours thereafter, cell growth was measured by a calorimetric assay method using 3-(4,5-dimethyl-2-thiazolyl)-2,5-diphenyl-2H-tetrazolium bromide (MTT) as follows: 20 μl of 2 mg/ml MTT solution was added to each well and the cells were incubated for 4 hours at 37° C. Thereafter, 50 μl of 50% dimethylformamide solution containing 20% sodium dodecyl sulfate was added to each well and allowed to stand, so that the formed violet formazan crystal was dissolved, and its absorbance at 570 nm was measured in a microplate absorbance photometer (Immunoreader) and used as an indicator of the growth.\nas §2, §3"}, "[3]": {"experiment": "Repeated administration toxicity test (intraperitoneal)", "assay_type": "in vivo, mouse (CDF1)", "details": "mouse, in vivo, ip, read-out: Fatality rate", "method": "As the comparative control, test solutions of adriamycin were prepared in the same manner. […] The number with time of survived animals after administration and the average body weights on Days 0, 5, and 10 were determined."}}, "note": "Where two headings read alike, the source gives them in different places."}
{"smiles": "COC(CC1C(C)=CCC2C1(C)CCC1C(C)(C)C(O)C(OC3OC(C)C(OC(=O)c4cccc(O)c4)C(OC4OC(CO)C(O)C(O)C4NC(C)=O)C3O)CC12C)C(N)C(=O)O", "note": "(stereo not drawn) [0406TP-1]", "values": [{"measurement": "LD50 at 730 h", "setting": "Acute toxicity test", "value": "> 100", "unit": "mg/kg"}, {"measurement": "survival", "setting": "ICR mice; 100 mg/kg i.v., one month observation", "value": "all survived"}, {"measurement": "toxicity and safety", "setting": "ICR mice; acute toxicity test, in words", "value": "low toxicity"}, {"measurement": "IC50", "setting": "[1]", "value": 0.11, "unit": "µg/mL"}, {"measurement": "IC50", "setting": "[2]; Mus musculus, adriamycin-resistant P388, 72 h, MTT, read-out: IC50 (growth inhibition)", "value": 0.22, "unit": "µg/mL"}, {"measurement": "inhibition on growth of adriamycin-resistant cells", "setting": "[2]; in words", "value": "strong inhibition"}, {"measurement": "T/C", "setting": "P388/ADR; 1 mg/kg/day i.p. × 10 days", "value": 130, "unit": "%"}, {"measurement": "average body weight after 10 days", "setting": "P388/ADR; 1 mg/kg/day i.p. × 10 days", "value": 26.2, "unit": "g"}, {"measurement": "average survival days", "setting": "P388/ADR; 1 mg/kg/day i.p. × 10 days", "value": 14.4, "unit": "days"}, {"measurement": "T/C", "setting": "P388/ADR; 5 mg/kg/day i.p. × 10 days", "value": 133, "unit": "%"}, {"measurement": "average body weight after 10 days", "setting": "P388/ADR; 5 mg/kg/day i.p. × 10 days", "value": 27.3, "unit": "g"}, {"measurement": "average survival days", "setting": "P388/ADR; 5 mg/kg/day i.p. × 10 days", "value": 14.8, "unit": "days"}, {"measurement": "T/C", "setting": "P388/ADR; 10 mg/kg/day i.p. × 10 days", "value": 165, "unit": "%"}, {"measurement": "average body weight after 10 days", "setting": "P388/ADR; 10 mg/kg/day i.p. × 10 days", "value": 26.4, "unit": "g"}, {"measurement": "average survival days", "setting": "P388/ADR; 10 mg/kg/day i.p. × 10 days", "value": 18.3, "unit": "days"}, {"measurement": "therapeutic effect", "setting": "P388/ADR; P388/ADR-transplanted mice", "value": "significant therapeutic effect"}, {"measurement": "IC50", "setting": "P388; Mus musculus, P388, 72 h, MTT, read-out: IC50 (growth inhibition)", "value": 0.65, "unit": "µg/mL"}, {"measurement": "cytotoxicity (antitumor activity) on cultured tumor cells", "setting": "P388; in words", "value": "strong cytotoxicity"}, {"measurement": "mortality", "setting": "[3]; 1 mg/kg/day i.p. × 10 days", "value": 0, "unit": "%"}, {"measurement": "mortality", "setting": "[3]; 5 mg/kg/day i.p. × 10 days", "value": 0, "unit": "%"}, {"measurement": "mortality", "setting": "[3]; 10 mg/kg/day i.p. × 10 days", "value": 0, "unit": "%"}]}
